Reference: the OligoGym collection
These antisense oligonucleotides have a phosphorothioate backbone; sugars and methylation of C are not fully specified.

Tests used:
CD44 = conditions: ASO
SRA1 = conditions: ASO
Note: test concentration or dose not given here.

| Sequence | remaining target (mRNA or protein) (fraction of control) (CD44) | remaining target (mRNA or protein) (fraction of control) (SRA1) |
| --- | --- | --- |
| ATCCAGGGACTGTCTTCG | ≥ 1 | – |
| TGAGACTTGCTGGCCTCT | 0.93 | – |
| GCGGCAGGTTATATTCAA | ≥ 1 | – |
| CAAGGTGCTATTGAAAGC | 0.92 | – |
| GACTTGCTGGCCTCTCCG | ≥ 1 | – |
| TACACCTGCAAAGCGGCA | ≥ 1 | – |
| TGGGAGGTGTTGTATGTG | ≥ 1 | – |
| CCTTTGGTGTCTCCCAGA | ≥ 1 | – |
| TTGCTCCACCTTCTTGAC | ≥ 1 | – |
| AGAGGGATGCCAAGATGA | ≥ 1 | – |
| AGCCGCTGCTCACGTCAT | ≥ 1 | – |
| TGCTATTGAAAGCCTTGC | ≥ 1 | – |
| CTTGTTCACCAAATGCAC | ≥ 1 | – |
| TCAAAGGACTGATCCAGG | ≥ 1 | – |
| CAGGGATTAGGCTATGGA | ≥ 1 | – |
| TCATGTCCACATTCTGCA | 0.81 | – |
| AGTGGAAAGCAATGCCCA | ≥ 1 | – |
| GCTGCTCCTTTCACTGGA | 0.9 | – |
| TCCCAGCTCCCTGTAATG | ≥ 1 | – |
| AAAGGTTGGCGATCAGGA | ≥ 1 | – |
| CGTCCGAGAGATGCTGTA | 0.52 | – |
| GCAAGAATCAAAGCCAAG | ≥ 1 | – |
| TCCACTTGGCTTTCTGTC | ≥ 1 | – |
| AGGTCTCAAATCCGATGC | ≥ 1 | – |

| Sequence | remaining target (mRNA or protein) (fraction of control) (CD44) | remaining target (mRNA or protein) (fraction of control) (SRA1) |
| --- | --- | --- |
| ATCAGTAGGGTTGCTGGG | ≥ 1 | – |
| CATCCAAACACAGCTGCT | – | 0.39 |
| GGAGCCAAGTGACAGAAG | – | 0.86 |
| GCTTGAAAGCTCTTGCAC | – | ≥ 1 |
| GTAGGCAGTAGTCTGACT | – | 0.42 |
| GGCCCAGGAGAAGTCTCT | – | ≥ 1 |
| TTCTCATGCTGAAATGAA | – | 0.74 |
| CAATGCCTGTTCCAAAGG | – | 0.91 |
| TTCTGCAATTAATCTTTT | – | 0.59 |
| TTTCCTCCCAGGGACCAG | ≥ 1 | – |
| GGGAGCCTTACTTGAAGG | – | 0.88 |
| GAAAGCCTTGCAGAGGTC | 0.9 | – |
| GCCAGGCGTCGGCTGATG | – | 0.38 |
| CAGTGCCAGGCGTCGGCT | – | 0.66 |
| CTTTCCTTTTGTTGAGGG | – | ≥ 1 |
| GACACCAGAGGGACTAGC | – | 0.73 |
| CTGTGCTGTCGGTGATCC | ≥ 1 | – |
| GTTGTGTTTGCTCCACCT | 0.92 | – |
| GAGGGTCCATACTAAGCG | – | 0.53 |
| AACTGCGGCGGGTCGTTC | – | ≥ 1 |
| GTGTTGTTTGCTGCACAG | ≥ 1 | – |
| CAACGGTTGTTTCTTTCC | ≥ 1 | – |
| AAATCCGATGCTCAGAGC | ≥ 1 | – |
| CCATTTCCTGAGACTTGC | ≥ 1 | – |

| Sequence | remaining target (mRNA or protein) (fraction of control) (CD44) | remaining target (mRNA or protein) (fraction of control) (SRA1) |
| --- | --- | --- |
| TAGCGGGTGCCATCACGG | ≥ 1 | – |
| ACGTGGAATACACCTGCA | ≥ 1 | – |
| CCTGCTGGAAGCCTGGTA | – | ≥ 1 |
| TGCTGGAAGCCTGGTATG | – | 0.28 |
| AATGTCCTTAGCTGGTGG | ≥ 1 | – |
| GTCCTCCACAGCTCCATT | ≥ 1 | – |
| CCCACACCTTCTTCGACT | 0.94 | – |
| ACAGCTCCATTGCCACTG | ≥ 1 | – |
| ACCAGGCCCTATTAACCC | ≥ 1 | – |
| ACCATCCACTGACTGACC | – | ≥ 1 |
| TTTAACTCCTACCATCCA | – | 0.89 |
| GTCTCCCAGAAGCATCTG | ≥ 1 | – |
| GCTCCACGCCAGAGGCAG | – | 0.49 |
| ACGCCAGAGGCAGGACCA | – | 0.55 |
| GGCAGGTCTGTGACTGAT | ≥ 1 | – |
| CCTGCTTCCTTGTGTGGC | – | 0.66 |
| GTCGGCTGATGTCATCAC | – | ≥ 1 |
| CCTGGGTCCGCCGGCCTG | – | 0.86 |
| GGTGTCCGGTGAGTCTGG | – | 0.5 |
| GCCAGAGGCAGGACCACT | – | 0.72 |
| GTGGATGTCATCTGCTGC | – | ≥ 1 |
| TCTCCAAGGCATAGGAGA | – | 0.8 |
| GTTTCCAACGGTTGTTTC | ≥ 1 | – |
| GGTTATGTTTCCAACGGT | ≥ 1 | – |

| Sequence | remaining target (mRNA or protein) (fraction of control) (CD44) | remaining target (mRNA or protein) (fraction of control) (SRA1) |
| --- | --- | --- |
| GAGCCTCAGACTCGACTG | – | 0.65 |
| TGGTATGGTTCTTCTCAG | – | 0.58 |
| CAGGGAGCAGGGCAGTCG | – | 0.35 |
| TGAATGGAGAAGGGAGAA | – | 0.75 |
| CTGCTGGAAGCCTGGTAT | – | 0.77 |
| CCTCTGAAAACAGACTCC | – | 0.71 |
| TGACAACTTTCCTCCAGC | – | 0.15 |
| ATGAGGGAGCGGTGGATG | – | ≥ 1 |
| AGTCGAGCCTCAGACTCG | – | 0.72 |
| ACCCTCTTGGTAAGCAGC | – | ≥ 1 |
| TCACATGGTCAACCATGA | – | 0.93 |
| TTCTTTACAGGTATTGAC | – | ≥ 1 |
| TGGCCACGGCAGTCTTCC | – | 0.52 |
| CTGAAAACAGACTCCTCT | – | 0.56 |
| TCCAAAGGTCTCAGCACA | – | 0.26 |
| GACCACTCCCCACAGGTG | – | ≥ 1 |
| TCAGCACATCCTCCATCA | – | 0.97 |
| CTTCCCTCATAGGTGGGT | – | ≥ 1 |
| ATCTGCTGCGTCCCACCG | – | 0.9 |
| GAGGGAGCGGTGGATGTC | – | 0.48 |
| GGCACCGGAAGGAGATGG | – | 0.43 |
| CTCTGGCCCAGGTGGGAC | – | 0.55 |
| CTCCATCAGTCGAGCCTC | – | ≥ 1 |
| CCAGCAGATCCCTTCCTG | – | ≥ 1 |

| Sequence | remaining target (mRNA or protein) (fraction of control) (CD44) | remaining target (mRNA or protein) (fraction of control) (SRA1) |
| --- | --- | --- |
| GTCTGCAGCCCGTATGAG | – | ≥ 1 |
| CCAGTAGAGCCATTCTCT | – | 0.83 |
| AGGCCCAGGAGAAGTCTC | – | 0.61 |
| TTTCTCTTCATTGGCTGC | – | 0.38 |
| AACCGAGGATTATGAAGC | – | 0.57 |
| GAGGCCCAGGAGAAGTCT | – | 0.62 |
| CAACTTTCCTCCAGCCCA | – | 0.41 |
| GAGGCCCGGAACTCCACT | – | 0.89 |
| TGAAAGCTCTTGCACCAG | – | 0.64 |
| CTTTTAACTCCTACCATC | – | 0.43 |
| GCTCCGCCCAGCACAGGA | – | 0.37 |
| TGTTCCTGCAGCAGTGCC | – | 0.39 |
| ACTGGGAAACTTGTGGGC | – | ≥ 1 |
| AAACTTGTGGGCTCCACG | – | 0.18 |
| AACTTTCCTCCAGCCCAC | – | 0.21 |
| TTTCTGCAATTAATCTTT | – | ≥ 1 |
| GGTTCTTCTCAGCTGTGG | – | 0.49 |
| TTTTAACTCCTACCATCC | – | ≥ 1 |
| GGAACCGAGGATTATGAA | – | 0.68 |
| GCTGTGGCTGCAGATTTC | – | 0.48 |
| GTATGGTATGGTTCTTCT | – | 0.94 |
| TTCCTGCAGCAGTGCCAG | – | 0.45 |
| TCTGAAAACAGACTCCTC | – | 0.99 |
| TGCTGCGTCCCACCGGTG | – | 0.27 |

| Sequence | remaining target (mRNA or protein) (fraction of control) (CD44) | remaining target (mRNA or protein) (fraction of control) (SRA1) |
| --- | --- | --- |
| TCTGCTGCGTCCCACCGG | – | 0.32 |
| CTCCAGCCCACTGTTCCT | – | ≥ 1 |
| CCCCACTCAATGTGGTTC | – | 0.31 |
| CTGACCTCAGTCACATGG | – | ≥ 1 |
| ACATACCTGCTTCCTTGT | – | ≥ 1 |
| TTGGCTGCCTCCTCTGAA | – | 0.58 |
| ATCCTCCATCAGTCGAGC | – | ≥ 1 |
| CATGGTCAACCATGAGGG | – | ≥ 1 |
| CTTCATTGGCTGCCTCCT | – | 0.2 |
| TTTCACCGCAGAGATGTT | – | ≥ 1 |
| AAAACAGACTCCTCTTTT | – | 0.54 |
| TGACAGAAGGTCTCCAAG | – | 0.81 |
| TGAAGGAGGTGGAGGCCC | – | ≥ 1 |
| CGGCAGTCTTCCAATGCC | – | ≥ 1 |
| ATTTGAGGAGATGGTGTC | – | 0.94 |
| GTATCTCAAGGGTGATAC | – | 0.6 |
| CCACCGGTGGCTTGAAAG | – | 0.85 |
| ACACATGAACTCCCTCTG | – | 0.77 |
| TATGAAGCCTGCTGGAAG | – | 0.64 |
| GGCCTGGGTCTGCAGCCC | – | 0.94 |
| GCACCAGTAGAGCCATTC | – | 0.3 |
